Test system: Aorta
Assay: Vasorelaxant activity in Wister rat isolated thoracic aortic rings assessed as reduction of norepinephrine hydrochloride-induced contraction
Format: functional, tissue-based

Compound | IC50 [µM]
COc1nc(-c2nc3ccccc3n2C)cc(-c2ccc(Cl)cc2Cl)c1C#N | 214
COc1nc(-c2nc3ccccc3n2C)cc(-c2ccc(F)cc2)c1C#N | 343
CCOc1nc(-c2nc3ccccc3n2C)cc(-c2ccc(OC)cc2)c1C#N | 436
CCOc1nc(-c2nc3ccccc3n2C)cc(-c2ccc(C)o2)c1C#N | 336
COc1nc(-c2nc3ccccc3n2C)cc(-c2ccc(C)cc2)c1C#N | 295
CCOc1nc(-c2nc3ccccc3n2C)cc(-c2ccc(Cl)cc2)c1C#N | 293
CCOc1nc(-c2nc3ccccc3n2C)cc(-c2cccs2)c1C#N | 249
CCOc1nc(-c2nc3ccccc3n2C)cc(-c2ccc(C)cc2)c1C#N | 400
COc1nc(-c2nc3ccccc3n2C)cc(-c2cccs2)c1C#N | 312
COc1nc(-c2nc3ccccc3[nH]2)cc(-c2ccc(Cl)cc2)c1C#N | 286
COc1nc(-c2nc3ccccc3[nH]2)cc(-c2ccc(C)o2)c1C#N | 202
COc1nc(-c2nc3ccccc3n2C)cc(-c2ccc(Cl)cc2)c1C#N | 145
COc1ccc(-c2cc(-c3nc4ccccc4n3C)nc(OC)c2C#N)cc1 | 210
CCOc1nc(-c2nc3ccccc3n2C)cc(-c2ccc(F)cc2)c1C#N | 362
COc1nc(-c2nc3ccccc3n2C)cc(-c2ccccc2)c1C#N | 300
CCOc1nc(-c2nc3ccccc3n2C)cc(-c2ccccc2)c1C#N | 364
COc1nc(-c2nc3ccccc3n2C)cc(-c2ccc(C)o2)c1C#N | 283
CCOc1nc(-c2nc3ccccc3n2C)cc(-c2ccc(Cl)cc2Cl)c1C#N | 305
